According to ChEMBL document CHEMBL1165894, “Synthesis and pharmacological characterization of a novel nitric oxide-releasing diclofenac derivative containing a benzofuroxan moiety” (Eur J Med Chem, 2010):
Activity calls are given as the source filed them. The rule behind the calls is not given here.

Legend:
[1] = tested on: Blood; assay: Antiinflammatory activity in human whole blood assessed as inhibition of LPS-induced PGE2 production at 1 to 100 uM after 18 hrs by ELISA; type: functional, tissue-based
[2] = tested on: Rattus norvegicus; assay: Antiinflammatory activity in Wistar rat assessed as reduction in carrageenan-induced paw edema at 100 mg/kg, ip after 0.5 to 4 hrs; type: functional, organism-based; set-up: dose 100 mg/kg
[3] = tested on: Rattus norvegicus; assay: Toxicity in Wistar rat assessed as reduction in PGE2 level in gastric mucosa at 30 mg/kg, po; type: organism-based; set-up: dose 30 mg/kg, route oral; settings: in vivo
[4] = Induction of NO release in phosphate buffer containing L-cysteine at pH 7.4 assessed as nitrite level by Griess assay; type: physicochemical
[5] = tested on: Blood; assay: Antiinflammatory activity in human whole blood assessed as inhibition of LPS-induced production at 0.01 to 100 uM after 18 hrs by ELISA

- Activity [4]: 372 nM
SMILES: O=C(Cc1ccccc1Nc1c(Cl)cccc1Cl)OCc1ccc2no[n+]([O-])c2c1
- Activity [1]: Active
- Activity [2]: Active
- Activity [3]: Toxic
- Activity [5]: Active
